What is called melting point is the temperature, or range, at which the solid turns liquid.

For `COCCc1cccc(Nc2nc3ccccc3[n+]([O-])n2)c1` [Compound 49, N-[3-(2-Methoxyethyl)phenyl]-1,2,4-benzotriazin-3-amine 1-oxide], the melting point is 122 to 124 °C.

In turn, `O=C(O)Cc1ccc(Nc2nc3ccccc3[n+]([O-])n2)cc1` [Compound 52, {4-[(1-Oxido-1,2,4-benzotriazin-3-yl)amino]phenyl}acetic acid] returned a melting point of 243 to 245 °C.

Take `COCCNC(=O)Cc1ccc(Nc2nc3ccccc3[n+]([O-])n2)cc1` [Compound 53, 2-{4-[(1-Oxido-1,2,4-benzotriazin-3-yl)amino]phenyl}-N-(2-methoxyethyl)acetamide]: the melting point is 216 to 218 °C.

In the case of `CN(C)CCNC(=O)Cc1ccc(Nc2nc3ccccc3[n+]([O-])n2)cc1` [Compound 54, N-[2-(Dimethylamino)ethyl]-2-{4-[(1-oxido-1,2,4-benzotriazin-3-yl)amino]phenyl}acetamide], the melting point lay in the range of 225 to 226 °C.

As for `[O-][n+]1nc(-c2ccccc2)nc2ccccc21` [Compound 57, 3-Phenyl-1,2,4-benzotriazine 1-oxide], the melting point was in the range of 125 to 127 °C.

With `COc1ccc(-c2nc3ccccc3[n+]([O-])n2)cc1` [Compound 58, 3-(4-Methoxyphenyl)-1,2,4-benzotriazine 1-oxide], the melting point lay within 168 to 170 °C.

`C=Cc1nc2ccccc2[n+]([O-])n1` [Compound 59, 3-Vinyl-1,2,4-benzotriazine 1-oxide] had a melting point of 85 to 86 °C.

Regarding `C=CCc1nc2ccccc2[n+]([O-])n1` [Compound 60, 3-Allyl-1,2,4-benzotriazine 1-oxide], the melting point was 57 to 58 °C.

Consider `[O-][n+]1nc(CC2CO2)nc2ccccc21` (stereo not shown) [Compound 62, 3-(2-Oxiranylmethyl)-1,2,4-benzotriazine 1-oxide], for which the melting point is 105 to 107 °C.

`COCCc1nc2ccccc2[n+]([O-])n1` [Compound 63, 3-(2-Methoxyethyl)-1,2,4-benzotriazine 1-oxide] registered a melting point of 56 to 58 °C.

In turn, `[O-][n+]1nc(CCCO)nc2ccccc21` [Compound 66, 3-(3-Hydroxypropyl)-1,2,4-benzotriazine 1-oxid] came in with a melting point of 99 to 100 °C.

With `Cc1ccc2c(c1)nc(Cl)n[n+]2[O-]` [Compound 73, 3-Chloro-6-methyl-1,2,4-benzotriazine 1-oxide], the melting point was 156 to 158 °C.

`Cc1ccc2c(c1)nc(NCCO)n[n+]2[O-]` [Compound 74, 2-[(6-Methyl-1-oxido-1,2,4-benzotriazin-3-yl)amino]ethanol]: the melting point was 198 to 202 °C.

In turn, `Cc1ccc2c(c1)nc(NCCN(C)C)n[n+]2[O-]` [Compound 76, N^1,N^1-Dimethyl-N^2-(6-methyl-1-oxido-1,2,4-benzotriazin-3-yl)-1,2-ethanediamine] displayed a melting point of 143 to 145 °C.

Regarding `Cc1ccc2c(c1)nc(NCCN1C(C)CCCC1C)n[n+]2[O-]` (stereo not shown) [Compound 78, N-[2-(2,6-Dimethyl-1-piperidinyl)ethyl]-6-methyl-1,2,4-benzotriazin-3-amine 1-oxide], the melting point was in the range of 162 to 165 °C.

With `C=CCc1nc2cc(C)ccc2[n+]([O-])n1` [Compound 80, 3-Allyl-6-methyl-1,2,4-benzotriazine 1-oxide], the melting point lay within 65 to 67 °C.

With `Cc1ccc2c(c1)nc(CCO)n[n+]2[O-]` [Compound 81, 2-(6-Methyl-1-oxido-1,2,4-benzotriazin-3-yl)ethanol], the melting point fell in the range of 121 to 123 °C.

On to `COc1ccc2c(c1)nc(Cl)n[n+]2[O-]` [Compound 83, 3-Chloro-6-methoxy-1,2,4-benzotriazine 1-oxide], for which the melting point is 196 to 199 °C.

`COc1ccc2c(c1)nc(NCCN1CCCCC1)n[n+]2[O-]` [Compound 85, 6-Methoxy-N-[2-(1-piperidinyl)ethyl]-1,2,4-benzotriazin-3-amine 1-oxide] returned a melting point of 133 to 135 °C.

In turn, `COc1ccc2c(c1)nc(NCCN1CCOCC1)n[n+]2[O-]` [Compound 86, 6-Methoxy-N-[2-(4-morpholinyl)ethyl]-1,2,4-benzotriazin-3-amine 1-oxide] registered a melting point of 186 to 188 °C.

In turn, `Cc1ccc2nc(NCCN3CCCCC3)n[n+]([O-])c2c1` [Compound 89, 7-Methyl-N-[2-(1-piperidinyl)ethyl]-1,2,4-benzotriazin-3-amine 1-oxide] displayed a melting point of 166 to 168 °C.

As for `COc1ccc2nc(NCCN3CCCCC3)n[n+]([O-])c2c1` [Compound 93, 7-Methoxy-N-[2-(1-piperidinyl)ethyl]-1,2,4-benzotriazin-3-amine 1-oxide], the melting point lay within 162 to 165 °C.

In turn, `COc1ccc2nc(NCCN3CCOCC3)n[n+]([O-])c2c1` [Compound 94, 7-Methoxy-N-[2-(4-morpholinyl)ethyl]-1,2,4-benzotriazin-3-amine 1-oxide] displayed a melting point of 208 to 212 °C.

`COCCOc1ccc2nc(Cl)n[n+]([O-])c2c1` [Compound 96, 3-Chloro-7-(2-methoxyethoxy)-1,2,4-benzotriazine 1-oxide] yielded a melting point of 121 to 125 °C.

For the compound `CCc1nc2ccc(OCCOC)cc2[n+]([O-])n1` [Compound 97, 3-Ethyl-7-(2-methoxyethoxy)-1,2,4-benzotriazine 1-oxid], the melting point lay in the range of 95 to 97 °C.

As to `[O-][n+]1nc(Cl)nc2ccc(OCCN3CCOCC3)cc21` [Compound 98, 3-Chloro-7-[2-(4-morpholinyl)ethoxy]-1,2,4-benzotriazine 1-oxide], the melting point was 144 to 146 °C.

`CCc1nc2ccc(OCCN3CCOCC3)cc2[n+]([O-])n1` [Compound 99, 3-Ethyl-7-[2-(4-morpholinyl)ethoxy]-1,2,4-benzotriazine 1-oxide]: the melting point lay in the range of 99 to 101 °C.

As for `Cc1cccc2nc(Cl)n[n+]([O-])c12` [Compound 100, 3-Chloro-8-methyl-1,2,4-benzotriazine 1-oxide], the melting point was 170 to 173 °C.

Regarding `Cc1cccc2nc(NCCN(C)C)n[n+]([O-])c12` [Compound 101, N^1,N^1-Dimethyl-N^2-(8-methyl-1-oxido-1,2,4-benzotriazin-3-yl)-1,2-ethanediamine], the melting point was 121 to 123 °C.

As to `Cc1cc2nc(Cl)n[n+]([O-])c2cc1C` [Compound 104, 3-Chloro-6,7-dimethyl-1-oxido-1,2,4-benzotriazine], the melting point is 148 to 149 °C.

The compound `Cc1cc2nc(NCCNC(=O)OC(C)(C)C)n[n+]([O-])c2cc1C` [Compound 105, tert-Butyl 2-[(6,7-dimethyl-1-oxido-1,2,4-benzotriazin-3-yl)amino]ethylcarbamate] registered a melting point of 226 to 228 °C.

`Cc1cc2nc(NCCN(C)C)n[n+]([O-])c2cc1C` [Compound 106, N^1-(6,7-Dimethyl-1-oxido-1,2,4-benzotriazin-3-yl)-N^2,N^2-dimethyl-1,2-ethanediamine] showed a melting point of 175 to 178 °C.

With `Cc1cc(C)c2c(c1)nc(Cl)n[n+]2[O-]` [Compound 108, 3-Chloro-6,8-dimethyl-1,2,4-benzotriazine 1-oxide], the melting point was 120 to 122 °C.

Consider `Cc1cc(C)c2c(c1)nc(NCCN(C)C)n[n+]2[O-]` [Compound 109, N^1-(6,8-Dimethyl-1-oxido-1,2,4-benzotriazin-3-yl)-N^2,N^2-dimethyl-1,2-ethanediamine], for which the melting point lay within 176 to 179 °C.

`Cc1cc(C)c2c(c1)nc(NCCN1CCCCC1)n[n+]2[O-]` [Compound 110, 6,8-Dimethyl-N-[2-(1-piperidinyl)ethyl]-1,2,4-benzotriazin-3-amine 1-oxide]: the melting point fell in the range of 177 to 178 °C.

As to `COc1cc2nc(N)n[n+]([O-])c2cc1C` [Compound 112, 6-Methoxy-7-methyl-1,2,4-benzotriazin-3-amine 1-oxide], the melting point lay in the range of 289 to 292 °C.

As for `COc1cc2nc(Cl)n[n+]([O-])c2cc1C` [Compound 113, 3-Chloro-6-methoxy-7-methyl-1,2,4-benzotriazine 1-oxide], the melting point is 180 to 182 °C.

`COc1cc2nc(NCCN(C)C)n[n+]([O-])c2cc1C` [Compound 114, N^1-(6-Methoxy-7-methyl-1-oxido-1,2,4-benzotriazin-3-yl)-N^2,N^2-dimethyl-1,2-ethanediamine]: the melting point lay in the range of 167 to 169 °C.

With `COc1cc2c(cc1C)nc(Cl)n[n+]2[O-]` [Compound 117, 3-Chloro-7-methoxy-6-methyl-1,2,4-benzotriazine 1-oxide], the melting point was in the range of 200 to 202 °C.

`COc1cc2c(cc1C)nc(NCCN(C)C)n[n+]2[O-]` [Compound 118, N^1,N^1-Dimethyl-N^2-(7-methoxy-6-methyl-1-oxido-1,2,4-benzotriazin-3-yl)-1,2-ethanediamine] came in with a melting point of 182 to 184 °C.

`COc1cc2c(cc1C)nc(NCCN1CCCCC1)n[n+]2[O-]` [Compound 119, 7-Methoxy-6-methyl-N-[2-(1-piperidinyl)ethyl]-1,2,4-benzotriazin-3-amine 1-oxide] yielded a melting point of 195 to 197 °C.

With `O=C(NCCOCCNc1nc2ccccc2[n+]([O-])n1)c1cccc2cc3ccccc3nc12` [Compound 121, N-(2-{2-[(1-Oxido-1,2,4-benzotriazin-3-yl)amino]ethoxy}ethyl)-4-acridinecarboxamide], the melting point is 178 to 182 °C.

As for `COCCNc1nc2ccccc2[n+]([O-])c1C#N` [Compound 123, 3-[(2-Methoxyethyl)amino]-2-quinoxalinecarbonitrile 1-oxide], the melting point was 124 to 126 °C.

`Nc1nc2ccccc2n[n+]1[O-]` [Compound 126, 1,2,4-Benzotriazin-3-amine 2-oxide] showed a melting point of 175 to 180 °C.

Consider `[O-][n+]1nc(Cl)nc2cc(Cl)ccc21` [Compound 133, 3,6-Dichloro-1,2,4-benzotriazine 1-Oxide], for which the melting point fell in the range of 149 to 151 °C.

Regarding `CCN(CC)CCNc1nc2cc(Cl)ccc2[n+]([O-])n1` [Compound 134, N^1-(6-Chloro-1-oxido-1,2,4-benzotriazin-3-yl)-N^2,N^2-diethyl-1,2-ethanediamine], the melting point lay in the range of 128 to 130 °C.

For the origin of these results see patent publication US20040192686A1, “Benzoazine mono-N-oxides and benzoazine 1,4 dioxides and compositions therefrom for the therapeutic use in cancer treatments” (Auckland Uniservices Limited, priority 2003, published 2004).
